Key:
[1] = system: HCV sub-genomic replicon (1377/NS3-3') in HuH-7 hepatoma cells (GS4.3); experiment: Quantitation by ELISA of NPTII in the HCV sub-genomic replicon, GS4.3; type: cell-based, hepatitis C virus (HCV); conditions: Hepatitis C virus, Huh-7; GS4.3 cells, 72 h incubation, NPTII ELISA; read-out: Replicon EC50
Protocol: The HCV sub-genomic replicon (1377/NS3-3′, accession No. AJ242652), stably maintained in HuH-7 hepatoma cells, was created by Lohmann et al. Science 285: 110-113 (1999). The replicon-containing cell culture, designated GS4.3, was obtained from Dr. Christoph Seeger of the Institute for Cancer Research, Fox Chase Cancer Center, Philadelphia, Pa.
GS4.3 cells were maintained at 37° C., 5% CO2, in DMEM (Gibco 11965-092) supplemented with L-glutamine 200 mM (100×) (Gibco25030-081), non-essential amino acids (NEAA) (Biowhittaker 13-114E), heat-inactivated (HI) Fetal Bovine Serum (FBS) (Hyclone SH3007.03) and 750 μg/mL geneticin (G418)(Gibco 10131-035). Cells were sub-divided 1:3 or 4 every 2-3 days.
24 h prior to the assay, GS4.3 cells were collected, counted, and plated in 96-well plates (Costar 3585) at 7500 cells/well in 100 μL standard maintenance medium (above) and incubated in the conditions above. To initiate the assay, culture medium was removed, cells were washed once with PBS (Gibco 10010-023) and 90 μl Assay Medium (DMEM, L-glutamine, NEAA, 10% HI FBS, no G418) was added. Inhibitors were made as a 10× stock in Assay Medium, (3-fold dilutions from 10 μM to 56 pM final concentration, final DMSO concentration 1%), 10 μL were added to duplicate wells, plates were rocked to mix, and incubated as above for 72 h.
An NPTII Elisa kit was obtained from AGDIA, Inc. (Compound direct ELISA test system for Neomycin Phosphotransferase II, PSP 73000/4800). Manufacturer's instructions were followed, with some modifications. 10×PEB-1 lysis buffer was made up to include 500 μM PMSF (Sigma P7626, 50 mM stock in isopropanol). After 72 h incubation, cells were washed once with PBS and 150 μL PEB-1 with PMSF was added per well. Plates were agitated vigorously for 15 minutes, room temperature, then frozen at −70° C. Plates were thawed, lysates were mixed thoroughly, and 100 μl were applied to an NPTII Elisa plate. A standard curve was made. Lysate from DMSO-treated control cells was pooled, serially diluted with PEB-1 with PMSF, and applied to duplicate wells of the ELISA plate, in a range of initial lysate amount of 150 μL-2.5 μL. In addition, 100 μL buffer alone was applied in duplicate as a blank. Plates were sealed and gently agitated at room temperature for 2 h. Following capture incubation, the plates were washed 5×300 μL with PBS-T (0.5% Tween-20, PBS-T was supplied in the ELISA kit). For detection, a 1× dilution of enzyme conjugate diluent MRS-2 (5×) was made in PBS-T, into which 1:100 dilutions of enzyme conjugates A and B were added, as per instructions. Plates were resealed, and incubated with agitation, covered, room temperature, for 2 h. The washing was then repeated and 100 μL of room temperature TMB substrate was added. After approximately 30 minutes incubation (room temperature, agitation, covered), the reaction was stopped with 50 μL 3M sulfuric acid. Plates were read at 450 nm on a Molecular Devices Versamax plate reader.
Inhibitor effect was expressed as a percentage of DMSO-treated control signal, and inhibition curves were calculated using a 4-parameter equation: y=A+((B−A)/(1+((C/x)^D))), where C is half-maximal activity or EC50.

[2] = target: T1, NS3/NS4A-2 (full-length HCV NS3 protease complexed with NS4A-2) (Hepatitis C virus genotype 1a, UniProt P27958); experiment: NS3 inhibition assay (NS3-NS4 protease assay); type: biochemical; conditions: recombinant full-length NS3/NS4A-2, RETS1 substrate, kinetic fluorescence read; read-out: NS3-NS4 IC50
T1 construct: Recombinant E. coli or Baculovirus full-length NS3; host or cells: E. coli or baculovirus (insect cells)
T1 sequence (P27958 1027-1657, one chain of several): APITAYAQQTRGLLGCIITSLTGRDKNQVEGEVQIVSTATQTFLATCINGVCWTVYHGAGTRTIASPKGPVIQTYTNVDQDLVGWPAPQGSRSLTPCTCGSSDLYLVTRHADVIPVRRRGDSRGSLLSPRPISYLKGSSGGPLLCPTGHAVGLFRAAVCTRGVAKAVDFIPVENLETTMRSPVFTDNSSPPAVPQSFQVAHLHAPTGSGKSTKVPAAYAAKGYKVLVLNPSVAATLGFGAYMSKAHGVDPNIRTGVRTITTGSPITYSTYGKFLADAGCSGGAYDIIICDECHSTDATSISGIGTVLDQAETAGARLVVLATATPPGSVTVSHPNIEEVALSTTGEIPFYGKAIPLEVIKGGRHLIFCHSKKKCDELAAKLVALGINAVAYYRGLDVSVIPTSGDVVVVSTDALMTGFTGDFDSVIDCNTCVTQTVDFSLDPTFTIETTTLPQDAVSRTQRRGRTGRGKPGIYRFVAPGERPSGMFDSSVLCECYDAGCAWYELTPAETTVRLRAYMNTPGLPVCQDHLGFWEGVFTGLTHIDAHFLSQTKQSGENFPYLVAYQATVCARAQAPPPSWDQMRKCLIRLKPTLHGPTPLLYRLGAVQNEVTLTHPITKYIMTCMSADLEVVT
Protocol: Recombinant E. coli or Baculovirus full-length NS3 was diluted to 3.33 μM with assay buffer and transferred material to an eppendorf tube and place in water bath in 4° C. refrigerator. The appropriate amount of NS4A-2 to 8.3 mM in assay buffer was added to equal the volume of NS3 in step 2.1.1 (conversion factor −3.8 mg/272 μL assay buffer). The material was transferred to an eppendorf tube and place in water bath in 4° C. refrigerator.
After equilibration to 4° C., equal volumes of NS3 and NS4A-2 solutions were combined in an eppendorf tube, mix gently with a manual pipettor, and incubate mixture for 15 minutes in the 4° C. water bath. Final concentrations in the mixture are 1.67 μM NS3, 4.15 mM NS4A-2 (2485-fold molar excess NS4A-2).
After 15 minutes at 4° C., the NS3/NS4A-2 eppendorf tube was removed and place it in a room temperature water bath for 10 minutes. NS3/NS4A-2 was aliquoted at appropriate volumes and store at −80° C. (E. coli NS3 run at 2 nM in assay, aliquot at 25 μL. BV NS3 run at 3 nM in assay, aliquot at 30 μL).
Sample compounds were dissolved to 10 mM in DMSO then diluted to 2.5 mM (1:4) in DMSO. Typically, compounds were added to an assay plate at 2.5 mM concentration, yielding upon dilution a starting concentration of 50 microM in the assay inhibition curve. Compounds were serial diluted in assay buffer to provide test solutions at lower concentrations.
The E. coli. NS3/NS4A-2 was diluted to 4 nM NS3 (1:417.5 of 1.67 μM stock−18 μL1.67 μM stock+7497 μL assay buffer). The BV NS3/NS4A-2 was diluted to 6 nM NS3 (1:278.3 of 1.67 μM stock−24 μL1.67 μM stock+6655 μL assay buffer). Using the manual multichannel pipettor, careful not to introduce bubbles into the plate, add 50 μL assay buffer to wells A01-H01 of a black Costar 96-well polypropylene storage plate.
Using the manual multichannel pipettor, careful not to introduce bubbles into the plate, add 50 μL of diluted NS3/NS4A-2 from step 2.2.6 to wells A02-H12 of plate in step 2.2.7. Using the manual multichannel pipettor, careful not to introduce bubbles into the plate, transfer 25 μL of the wells in drug dilution plate in step 2.2.5 to corresponding wells in assay plate in step 2.2.8. Change tips on multichannel pipettor for each row of compounds transferred. Using the manual multichannel pipettor, careful not to introduce bubbles into the plate, mix the wells from the assay plate in step 2.2.9 by aspirating and dispensing 35 μL of the 75 μL in each well five times. Change tips on multichannel pipettor for each row of wells mixed. Cover plate with a polystyrene plate lid and pre-incubate the plate from step 2.2.10 containing NS3 protease and sample compounds 10 minutes at room temperature. While plate from step 2.2.11 is pre-incubating, dilute RETS1 substrate in a 15 mL polypropylene centrifuge tube. Dilute RETS1 substrate to 8 μM (1:80.75 of 646 μM stock−65 μL 646 μM stock+5184 μL assay buffer).
After the plate in step is done pre-incubating, and using the manual multichannel, add 25 μL of substrate to all wells on the plate. Quickly mix the plate as in step 2.2.10, mixing 65 μL of the 100 μL in the wells.
Read the plate in kinetic mode on the Molecular Devices SpectraMax Gemini XS plate reader. Reader settings: Read time: 30 minutes, Interval: 36 seconds, Reads: 51, Excitation λ: 335 nm, Emission λ: 495 nm, cutoff: 475 nm, Automix: off, Calibrate: once, PMT: high, Reads/well: 6, Vmax pts: 21 or 28/51 depending on length of linearity of reaction
IC50s are determined using a four parameter curve fit equation, and converted to Ki's using the following Km's: • Full-length E. coli NS3−2.03 μM • Full-length BV NS3−1.74 μM • where Ki=IC50/(1+[S]/Km)) • Quantitation by ELISA of the Selectable Marker Protein, Neomycin Phosphotransferase II (NPTII) in the HCV Sub-Genomic Replicon, GS4.3

Structure (SMILES) | EC50 [1] [nM] | IC50 [2] [nM]
C=C[C@@H]1C[C@]1(NC(=O)[C@@H]1C[C@@H](OC(=O)N2Cc3cccc(Cl)c3C2)CN1C(=O)[C@@H](Nc1cccc(C(C)(C)C)c1)C(C)C)C(=O)NS(=O)(=O)C1CC1 [Compound 41, [(3R,5S)-1-((S)-2-(3-tert-butylphenylamino)-3-methylbutanoyl)-5-((1R,2S)-1-(cyclopropylsulfonylcarbamoyl)-2-vinylcyclopropylcarbamoyl)pyrrolidin-3-yl]4-chloroisoindoline-2-carboxylate] | < 100 | < 100
C=C[C@@H]1C[C@]1(NC(=O)[C@@H]1C[C@@H](OC(=O)N2Cc3cccc(F)c3C2)CN1C(=O)[C@@H](Nc1cccc(C(F)(F)F)c1)C(C)C)C(=O)NS(=O)(=O)C1CC1 [Compound 42, [(3R,5S)-5-((1R,2S)-1-(cyclopropylsulfonylcarbamoyl)-2-vinylcyclopropylcarbamoyl)-1-((S)-3-methyl-2-(3-(trifluoromethyl)phenylamino)butanoyl)pyrrolidin-3-yl]4-fluoroisoindoline-2-carboxylate] | < 100 | < 100
C=C[C@@H]1C[C@]1(NC(=O)[C@@H]1C[C@@H](OC(=O)N2Cc3cccc(F)c3C2)CN1C(=O)[C@@H](Nc1cccc(C(F)(F)F)c1)C(C)(C)C)C(=O)NS(=O)(=O)C1CC1 [Compound 43, [(3R,5S)-5-((1R,2S)-1-(cyclopropylsulfonylcarbamoyl)-2-vinylcyclopropylcarbamoyl)-1-((S)-3,3-dimethyl-2-(3-(trifluoromethyl)phenylamino)butanoyl)pyrrolidin-3-yl]4-fluoroisoindoline-2-carboxylate] | < 100 | < 100
C=C[C@@H]1C[C@]1(NC(=O)[C@@H]1C[C@@H](OC(=O)N2Cc3cccc(F)c3C2)CN1C(=O)[C@@H](Nc1cncc(C(F)(F)F)c1)C(C)C)C(=O)NS(=O)(=O)C1CC1 [Compound 44, [(3R,5S)-5-((1R,2S)-1-(cyclopropylsulfonylcarbamoyl)-2-vinylcyclopropylcarbamoyl)-1-((S)-3-methyl-2-(5-(trifluoromethyl)pyridin-3-ylamino)butanoyl)pyrrolidin-3-yl]4-fluoroisoindoline-2-carboxylate] | 100 to 1000 | < 100
CC[C@@H]1C[C@]1(NC(=O)[C@@H]1C[C@@H](OC(=O)N2Cc3cccc(F)c3C2)CN1C(=O)[C@@H](Nc1cccc(C(C)(C)C)c1)C(C)C)C(=O)NS(=O)(=O)C1CC1 [Compound 45, [(3R,5S)-1-((S)-2-(3-tert-butylphenylamino)-3-methylbutanoyl)-5-((1R,2R)-1-(cyclopropylsulfonylcarbamoyl)-2-ethylcyclopropylcarbamoyl)pyrrolidin-3-yl]4-fluoroisoindoline-2-carboxylate] | < 100 | < 100
CC[C@@H]1C[C@]1(NC(=O)[C@@H]1C[C@@H](OC(=O)N2Cc3cccc(Cl)c3C2)CN1C(=O)[C@@H](Nc1cccc(C(C)(C)C)c1)C(C)C)C(=O)NS(=O)(=O)C1CC1 [Compound 46, [(3R,5S)-1-((S)-2-(3-tert-butylphenylamino)-3-methylbutanoyl)-5-((1R,2R)-1-(cyclopropylsulfonylcarbamoyl)-2-ethylcyclopropylcarbamoyl)pyrrolidin-3-yl]4-chloroisoindoline-2-carboxylate] | < 100 | < 100
CC[C@@H]1C[C@]1(NC(=O)[C@@H]1C[C@@H](OC(=O)N2Cc3cccc(F)c3C2)CN1C(=O)[C@@H](Nc1cccc(C(F)(F)F)c1)C(C)C)C(=O)NS(=O)(=O)C1CC1 [Compound 47, [(3R,5S)-5-((1R,2R)-1-(cyclopropylsulfonylcarbamoyl)-2-ethylcyclopropylcarbamoyl)-1-((S)-3-methyl-2-(3-(trifluoromethyl)phenylamino)butanoyl)pyrrolidin-3-yl]4-fluoroisoindoline-2-carboxylate] | < 100 | < 100
CC[C@@H]1C[C@]1(NC(=O)[C@@H]1C[C@@H](OC(=O)N2Cc3cccc(F)c3C2)CN1C(=O)[C@@H](Nc1cncc(C(F)(F)F)c1)C(C)C)C(=O)NS(=O)(=O)C1CC1 [Compound 48, [(3R,5S)-5-((1R,2R)-1-(cyclopropylsulfonylcarbamoyl)-2-ethylcyclopropylcarbamoyl)-1-((S)-3-methyl-2-(5-(trifluoromethyl)pyridin-3-ylamino)butanoyl)pyrrolidin-3-yl]4-fluoroisoindoline-2-carboxylate] | 100 to 1000 | < 100
